According to patent US20250179047A1, “5-[7-(3,4-DIHYDRO-1H-ISOQUINOLINE-2-CARBONYL)-1,2,3,4 TETRAHYDROISOQUINOLIN-6-YL]-1H-PYRROLE-3-CARBOXAMIDE DERIVATIVES, PHARMACEUTICAL COMPOSITIONS CONTAINING THEM AND THEIR USES AS PRO-APOPTOTIC AGENTS” (LES LABORATOIRES SERVIER, priority 2022, published 2025):

Key:
BCL2 D103Y = BCL2 D103Y (Homo sapiens, UniProt P10415, D103Y); assay: TR-FRET competitive binding assay, BCL2 D103Y; settings: Ki determined from IC50, read-out: TR_FRET EKI_Bcl2 D103Y
Outline: (§1)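 Competitive TR-FRET displacement of fluorescein-PUMA peptide (2 or 20 nM) from 0.5 nM terbium-labelled N-terminal Halo-fusion BCL2 (1-207, wild type or mutant) or BCLXL (2-196), expressed in E. coli. Buffer 50 mM Hepes pH 7.5, 150 mM NaCl, 5% DMSO; 2 h at 23°C. 520/495 nm ratio fitted over 11 points for IC50, converted to Ki.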

KMS-12-PE Bcl-2 G101V = assay: In vitro cytotoxicity CellTiter-Glo 48 h, KMS-12-PE Bcl-2 G101V; assay type: cell-based; settings: for Ratio (G101V/WT): C50 KMS-12-PE Bcl-2 G101V over C50 KMS-12-PE Bcl-2 WT; for IC50: Homo sapiens, KMS-12-PE, 48 h, CellTiter-Glo, C50 = concentration needed to reach 50% of the cellular viability
Method: KMS-12-PE (ACC 606) were purchased from the Leibniz-Institute DSMZ (Braunschweig, Germany) and were grown at 37° C. in a humidified atmosphere with […] in media recommended by the suppliers. Lentiviral particles containing Bcl-2 wild type (also named “Bcl2 WT”) and Bcl-2 mutated on G101V (also named “Bcl2 G101V”) were cloned into pcLV-CMV-DEST-IRES-TagRFP. Lentiviral particles (1×106) were mixed with Polybrene at 8 µg/ml and transduced by spinoculation for 1 h at 32° C. and incubated overnight. After 8 days, TagRFP positive-cells were sorted by FACS. BCL2 expression was monitored by immunoblotting using anti-Flag and anti-BCL2 antibodies.
Cellular viability was monitored with the cell viability assay (CellTiter-Glo®) on KMS-12-PE WT and G101V cell lines. The CellTiter-Glo® (CTG) Luminescent Cell Viability Assay (from Promega) is a homogeneous method to determine the number of viable cells in culture based on quantitation of the ATP present, which signals the presence of metabolically active cells.
Dose response of compounds are performed with 10 mM stock solutions (DMSO), 11-points curve, in a 384-well compound plate. The assay plate is prepared by stamping 40 nL from compound dilution plate of all different concentrations (e.g. 10 mM to have final […] assay test) into a cell culture microplate, using Echo acoustic liquid handling (Labcyte, Beckman). 40 μl of cell solution is added and cells are incubated with compounds for 48 h at 37° C., 5% CO2. CTG was added to the cells (according to the manufacturer instructions) and luminescence intensity was recorded using the Pherastar plate reader (BMG).
This assay provides in vitro cellular potency of the tested Bcl-2 inhibitors, measuring the C50, defined as the concentration needed to reach 50% of the cellular viability.

BCLXL WT = BCLXL WT (Homo sapiens (Human), UniProt Q07817); assay: TR-FRET competitive binding assay, BCLXL WT; settings: for Ki: BCLXL WT, Ki determined from IC50, read-out: TR_FRET EKI BclxL; for TR_FRET EKI BCLxL/WT selectivty ratio: ratio Ki BCLxL / Ki BCL2 WT
Outline: as §1

KMS-12-PE Bcl-2 WT = assay: In vitro cytotoxicity CellTiter-Glo 48 h, KMS-12-PE Bcl-2 WT; assay type: cell-based; settings: Homo sapiens, KMS-12-PE, C50 = concentration needed to reach 50% of the cellular viability
Outline: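 Potency is expressed as C50, the compound concentration at which viability of engineered KMS-12-PE cells (Bcl-2 wild type or G101V) falls to 50%, determined from CellTiter-Glo luminescence after 48 h of treatment over 11 concentrations.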

BCL2 WT = BCL2 WT (Homo sapiens (Human), UniProt P10415); assay: TR-FRET competitive binding assay, BCL2 WT; settings: Ki determined from IC50, read-out: TR_FRET EKI_Bcl2 WT
Outline: as §1

BCL2 G101V [1] = target: BCL2 G101V (Homo sapiens, UniProt P10415, G101V); assay: TR-FRET competitive binding assay, BCL2 G101V; settings: BCL2 G101V; Ki determined from IC50; read-out: TR_FRET EKI_Bcl2 G101V
Outline: as §1

BCL2 G101V [2] = assay: TR-FRET competitive binding assay, BCL2 G101V; design: species or system human; settings: ratio Ki BCL2 G101V / Ki BCL2 WT
Outline: as §1

BCLXL WT, sequence (Q07817 other isoform, or with tags, fused parts or gaps): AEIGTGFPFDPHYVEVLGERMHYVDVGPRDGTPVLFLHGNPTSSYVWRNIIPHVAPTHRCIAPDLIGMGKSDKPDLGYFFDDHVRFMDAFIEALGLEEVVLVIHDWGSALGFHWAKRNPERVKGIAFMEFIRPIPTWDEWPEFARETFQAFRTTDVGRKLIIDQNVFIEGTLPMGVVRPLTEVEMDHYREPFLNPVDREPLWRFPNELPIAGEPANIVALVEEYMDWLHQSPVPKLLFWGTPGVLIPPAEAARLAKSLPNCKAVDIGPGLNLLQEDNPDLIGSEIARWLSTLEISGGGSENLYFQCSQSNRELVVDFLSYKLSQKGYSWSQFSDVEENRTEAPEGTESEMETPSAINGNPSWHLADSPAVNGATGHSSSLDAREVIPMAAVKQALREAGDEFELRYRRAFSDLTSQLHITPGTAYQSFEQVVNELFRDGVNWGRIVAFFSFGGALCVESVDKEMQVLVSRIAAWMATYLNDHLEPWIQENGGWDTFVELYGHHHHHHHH

Ki (BCL2 D103Y) [nM] | Ki (BCLXL WT) [nM] | TR_FRET EKI BCLxL/WT selectivty ratio (BCLXL WT) | Ki (BCL2 WT) [nM] | Ki (BCL2 G101V [1]) [nM] | TR_FRET EKI G101V/WT selectivty ratio (BCL2 G101V [2]) | Compound | Ratio (G101V/WT) (KMS-12-PE Bcl-2 G101V) | IC50 (KMS-12-PE Bcl-2 G101V) [µM] | IC50 (KMS-12-PE Bcl-2 WT) [µM]
0.23 | 1.6 | 24.6 | 0.07 | 0.4 | 5.7 | COCCn1c(C#N)cc(N(C(=O)c2cc(-c3cc4c(cc3C(=O)N3Cc5ccccc5C[C@H]3C)CN(C(=O)Cc3ccc(OCCN5CCOCC5)cc3)CC4)n(C)c2C)c2ccc(O)cc2)c1C [Example 68, N-[5-cyano-1-(2-methoxyethyl)-2-methyl-pyrrol-3-yl]-N-(4-hydroxyphenyl)-1,2-dimethyl-5-[7-[(3R)-3-methyl-3,4-dihydro-1H-isoquinoline-2-carbonyl]-2-[2-[4-(2-morpholinoethoxy)phenyl]acetyl]-3,4-dihydro-1H-isoquinolin-6-yl]pyrrole-3-carboxamide] | 5.82 | 0.0556 | 0.0096
1.04 | 6.7 | 10.5 | 0.64 | 1.7 | 2.6 | Cc1c(N(C(=O)c2cc(-c3cc4c(cc3C(=O)N3Cc5ccccc5C[C@H]3C)CN(C(=O)Cc3ccc(OCCN5CCN(CC(F)(F)F)CC5)cc3)CC4)n(C)c2C)c2ccc(O)cc2)cc(C#N)n1C [Example 32, N-(5-cyano-1,2-dimethyl-1H-pyrrol-3-yl)-N-(4-hydroxyphenyl)-1,2-dimethyl-5-{7-[(3R)-3-methyl-1,2,3,4-tetrahydroisoquinoline-2-carbonyl]-2-[2-(4-{2-[4-(2,2,2-trifluoroethyl)piperazin-1-yl]ethoxy}phenyl)acetyl]-1,2,3,4-tetrahydroisoquinolin-6-yl}-1H-pyrrole-3-carboxamide] | 5.38 | 0.0393 | 0.0073
0.3 | 2.6 | 38.8 | 0.07 | 0.5 | 7.8 | Cc1c(N(C(=O)c2cc(-c3cc4c(cc3C(=O)N3Cc5ccccc5C[C@H]3CN3CCCCC3)CN(C(=O)Cc3ccc(OCCC5COCCO5)cc3F)CC4)n(C)c2C)c2ccc(O)cc2)cc(C#N)n1C (single isomer, unassigned) [Example 174, N-(5-cyano-1,2-dimethyl-pyrrol-3-yl)-5-[2-[2-[4-[2-((2S or R)-1,4-dioxan-2-yl)ethoxy]-2-fluoro-phenyl]acetyl]-7-[(3S)-3-(1-piperidylmethyl)-3,4-dihydro-1H-isoquinoline-2-carbonyl]-3,4-dihydro-1H-isoquinolin-6-yl]-N-(4-hydroxyphenyl)-1,2-dimethyl-pyrrole-3-carboxamide] | 5.6751 | 0.0248 | 0.0044
2.35 | 4.6 | 4.6 | 1 | 2 | 2.0 | Cc1c(N(C(=O)c2cc(-c3cc4c(cc3C(=O)N3Cc5ccccc5C[C@H]3C)CN(C(=O)Cc3ccccc3)CC4)n(C)c2C)c2ccc(O)cc2F)cc(C#N)n1C [Example 13, N-(5-cyano-1,2-dimethyl-1H-pyrrol-3-yl)-N-(2-fluoro-4-hydroxyphenyl)-1,2-dimethyl-5-{7-[(3R)-3-methyl-1,2,3,4-tetrahydroisoquinoline-2-carbonyl]-2-(2-phenylacetyl)-1,2,3,4-tetrahydroisoquinolin-6-yl}-1H-pyrrole-3-carboxamide] | 5.37 | 0.0704 | 0.0131
0.27 | 1.7 | 17.0 | 0.1 | 0.6 | 5.9 | Cc1c(N(C(=O)c2cc(-c3cc4c(cc3C(=O)N3Cc5ccccc5C[C@H]3CN3CCCCC3)CN(C(=O)Cc3ccc(OCCN(C)C5CC5)cc3F)CC4)n(C)c2C)c2ccc(O)cc2)cc(C#N)n1C [Example 88, N-(5-cyano-1,2-dimethylpyrrol-3-yl)-5-{2-[2-(4-{2-[cyclopropyl(methyl)amino]ethoxy}-2-fluorophenyl)acetyl]-7-{[(3S)-3-(piperidin-1-ylmethyl)-3,4-dihydro-1H-isoquinolin-2-yl]carbonyl}-3,4-dihydro-1H-isoquinolin-6-yl}-N-(4-hydroxyphenyl)-1,2-dimethylpyrrole-3-carboxamide] | 4.67 | 0.0296 | 0.0063
0.14 | 4.1 | 110.8 | 0.04 | 0.3 | 8.4 | Cc1c(N(C(=O)c2cc(-c3cc4c(cc3C(=O)N3Cc5ccccc5C[C@H]3CN3CCCC3)CN(C(=O)Cc3ccc(OCCN5CCN(CC(F)F)CC5)cc3)CC4)n(C)c2C)c2ccc(O)cc2)cc(C#N)n1C [Example 154, N-(5-cyano-1,2-dimethylpyrrol-3-yl)-5-{2-[2-(4-{2-[4-(2,2-difluoroethyl)piperazin-1-yl]ethoxy}phenyl)acetyl]-7-{[(3S)-3-(pyrrolidin-1-ylmethyl)-3,4-dihydro-1H-isoquinolin-2-yl]carbonyl}-3,4-dihydro-1H-isoquinolin-6-yl}-N-(4-hydroxyphenyl)-1,2-dimethylpyrrole-3-carboxamide] | 3.9552 | 0.265 | 0.067
0.64 | 8.3 | 51.9 | 0.16 | 0.8 | 5.3 | Cc1c(C(=O)N(c2ccc(O)cc2)c2cc(C#N)n(C(F)F)c2C)cc(-c2cc3c(cc2C(=O)N2Cc4ccccc4C[C@H]2CN2CCCCC2)CN(C(=O)Cc2ccc(OCCN(C)C4CC4)cc2)CC3)n1C [Example 163, N-[5-cyano-1-(difluoromethyl)-2-methyl-pyrrol-3-yl]-5-[2-[2-[4-[2-[cyclopropyl(methyl)amino]ethoxy]phenyl]acetyl]-7-[(3S)-3-(1-piperidylmethyl)-3,4-dihydro-1H-isoquinoline-2-carbonyl]-3,4-dihydro-1H-isoquinolin-6-yl]-N-(4-hydroxyphenyl)-1,2-dimethyl-pyrrole-3-carboxamide] | 5.97 | 0.0597 | 0.01
0.97 | 7.4 | 18.5 | 0.4 | 1.9 | 4.8 | Cc1c(N(C(=O)c2cc(-c3cc4c(cc3C(=O)N3Cc5ccccc5C[C@H]3C)CN(C(=O)Cc3ccc(Cl)cc3F)CC4)n(C)c2C)c2ccc(O)cc2)cc(C#N)n1C [Example 19, 5-{2-[2-(4-chloro-2-fluorophenyl)acetyl]-7-[(3R)-3-methyl-1,2,3,4-tetrahydroisoquinoline-2-carbonyl]-1,2,3,4-tetrahydroisoquinolin-6-yl}-N-(5-cyano-1,2-dimethyl-1H-pyrrol-3-yl)-N-(4-hydroxyphenyl)-1,2-dimethyl-1H-pyrrole-3-carboxamide] | 6.91 | 0.0423 | 0.0061
